Each structure is given as a SMILES string. “And” between values parts separate entries of the source, which are not always exact repeats. Equal entries are not always repeated.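 Exposure lasted 48 hours, with cells grown in 96-well plates and compounds tested at five concentrations. GI50 is the concentration that inhibits growth by half. TGI is the concentration that stops growth completely.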

The subject of this assay is MDA-MB-468 breast. Description: NCI-60 cell line screen, 48 h.
In the case of `CCN1CCN(c2ccc(Nc3cc(N(C)C(=O)Nc4c(Cl)c(OC)cc(OC)c4Cl)ncn3)cc2)CC1`, the GI50 was 3010 nM and the TGI came to 11.7 µM.
Consider `CC[C@]12C=CCN3CC[C@@]4(c5ccc(OC)cc5N(C)[C@H]4[C@@](O)(C(=O)OC)[C@@H]1OC(=O)CCC[P+](c1ccccc1)(c1ccccc1)c1ccccc1)[C@@H]32`, for which the GI50 is 123 nM and 217 nM; the TGI is 0.377 µM and 0.653 µM.
For `COc1ccc2c(c1)C(C)Cc1c(Cl)ncnc1N2C` (stereo not drawn), the GI50 is 276 nM and the TGI was determined as 0.804 µM.
Regarding `C/C(=C\CCc1ccoc1)CC/C=C(\C)CCCC1=CC(=O)OC1`, the GI50 was 2190 nM and the TGI came out at 8.41 µM.
Turning to `CCOc1nc(-c2ccccc2)cc2c(O)c(-c3nnco3)[nH]c(=O)c12`, the GI50 was 1550 nM and the TGI was over 25.8 µM.
`NCCCNc1nc2ccccc2c2c(=O)c3cc(OC(F)(F)F)ccc3sc12`: the GI50 was 1760 nM and the TGI was 3.42 µM.
For the molecule `CC(C)c1ccc(Nc2ccc3c(OCCCN4CCN(C)CC4)cccc3n2)cc1`, the GI50 is 12300 nM and the TGI was 26 µM.
For the molecule `Cc1ccc(C(SCC(N)C(=O)O)(c2ccccc2)c2ccc(C)cc2)cc1` (stereo not drawn), the GI50 is 118 nM and the TGI came out at 0.533 µM.
For the molecule `O=[N+]([O-])c1ccc(C=C2C(Cl)=C(Cl)C(Cl)=C2Cl)cc1`, the GI50 is 1700 nM and the TGI worked out at 3.35 µM.
Consider `CCC[CH2][Sn]([CH2]CCC)([CH2]CCC)[O]C(=O)CC`, for which the GI50 is 127 nM and the TGI came to 0.258 µM.
For `Cn1c(=O)c2c(nc(Nc3cc(=O)[nH]c(=O)[nH]3)n2Cc2ccccc2)n(C)c1=O`, the GI50 was 54800 nM and the TGI was over 100 µM.
For `Clc1ccc2c(NCCCNc3nccc(Nc4ccc(Br)cc4)n3)ccnc2c1`, in that order: 1610 nM and 3.21 µM.
Take `O=C(Nc1ccc(OS(=O)(=O)c2ccccc2)cc1)C12CC3CC(CC(C3)C1)C2`: the GI50 was 3800 nM and the TGI is over 100 µM.
For `Cn1cc(C2=C(c3ccc4ccccc4c3)C(=O)NC2=O)c2ccccc21`, in that order: 6240 nM and over 25 µM.
As to `NC(=NCCCOc1ccc(Cl)cc1)Nc1ccc(C(F)(F)F)cc1`, the GI50 was 1630 nM and the TGI turned out to be 3.61 µM.
For `COc1cc(C(=O)c2cc(C)c3[nH]c4ccc(Cl)cc4c3c2C)cc(OC)c1OC`, the GI50 was 38.5 nM and the TGI is 4.84 µM.
Consider `CC(C)(C)C(=O)OCOP(=O)(OCOC(=O)C(C)(C)C)C1CCCN(O)C1=O` (stereo not drawn), for which the GI50 is 977 nM and the TGI worked out at 5.48 µM.
For `O=S(=O)(Nc1cc(F)cc(Cl)c1)c1ccc(-c2cnc(C3CC3)o2)cc1`, the GI50 is 491 nM and the TGI worked out at 6.78 µM.
`C[C@H]1c2cccc(O)c2C(O)=C2C(=O)[C@]3(O)C(O)=C(C(N)=O)C(=O)[C@@H](N(C)C)[C@@H]3[C@@H](O)[C@@H]21`: the GI50 is 2050 nM and the TGI stood at 6.44 µM.
On to `C=C(C)[C@@]12OC3(/C=C/C=C/CCCCC)O[C@@H]1[C@@H]1[C@@H]4O[C@]4(CO)[C@@H](O)[C@]4(O)C(=O)C(C)=C[C@H]4[C@@]1(O3)[C@H](C)[C@H]2OC(=O)c1ccccc1`, for which the GI50 was 1370 nM and the TGI came out at 2.92 µM.
Take `Cc1ccc2c(n1)C(=O)c1[nH]c3ccccc3c1C2=O`: the GI50 is 510 nM and the TGI is 3.3 µM.
As for `COCCOc1cc(F)c2c(Nc3ccc(NC(=O)Cn4cc(C(C)C)nn4)cc3)ncnc2c1`, the GI50 was 57100 nM and the TGI was over 100 µM.
`COc1ncnc(C2CC2)c1-c1ncc2cnn(Cc3ccc(-c4nc(C(F)(F)F)cn4C(C)C)cc3)c2n1`: the GI50 is 3770 nM and the TGI stood at 38.3 µM.
In the same order, the values of `O=C1NC(=Nc2ccccc2)S/C1=C\c1ccc2ncccc2c1` are 2060 nM and over 25 µM.
In the case of `O=C(OCc1ccc2cccc(O)c2n1)N1CCN(C(=O)c2cc3cc(F)ccc3[nH]2)CC1`, the GI50 is 1510 nM and the TGI was 3.28 µM.
For the molecule `CNCCCn1cc(C2=C(c3cn(C)c4ccccc34)C(=O)NC2=O)c2ccccc21`, the GI50 was 3590 nM and the TGI amounted to 7.33 µM.
In the same order, the values of `COc1ccc(C(=O)c2cc(OC)c(C)c(OC)c2)cc1OC(=O)CCl` are 2390 nM and 21.6 µM.
With `COc1cc2c(cc1OC)C(Sc1ccc(C)cc1)c1c(nc(N)c(C#N)c1N)O2` (stereo not drawn), the GI50 was 1160 nM and the TGI amounted to 2.5 µM.
On to `Oc1ccc(Cl)cc1Cc1cc(Cl)cc(Cl)c1O`, for which the GI50 is 2790 nM and the TGI turned out to be 9.41 µM.
`Ic1ccc(Nc2nc3nonc3nc2Nc2ccc(I)cc2)cc1`: the GI50 was 174 nM and the TGI was 1.69 µM.
As for `COc1cc(C2c3cc4c(cc3OC(N3CCCC3)C2C)OCO4)cc(OC)c1O` (stereo not drawn), the GI50 is 17500 nM and the TGI is over 100 µM.
`CC1OC2CC(=O)OC2C2=C1C(=O)c1c(O)cccc1C2=O` (stereo not drawn): the GI50 is 20.8 nM and the TGI is 0.0525 µM.
As to `C=C(C=O)C1CCC2(C(=O)O)CCC3(C)C(CCC4C5(C)CCC(O)C(C)(C)C5CCC43C)C12` (stereo not drawn), the GI50 was 3270 nM and the TGI came to 20.6 µM.
In the case of `COc1ccc(C2CC(c3cccc(Nc4ccncc4)c3)=NN2c2cc(Cl)cc(Cl)c2)cc1` (stereo not drawn), the GI50 is 1630 nM and the TGI was found to be 3.29 µM.
For `C=C(F)C(=O)N1CCN(c2nc(OC[C@@H]3CCCN3C)nc3c2CCN(c2cccc4cccc(Cl)c24)C3)C[C@@H]1CC#N`, in that order: 1220 nM and 2.58 µM.
As for `CC(SC(C)C(=O)N/N=C/c1cccc(Cl)c1)C(=O)N/N=C\c1cccc(Cl)c1` (stereo not drawn), the GI50 was 21700 nM and the TGI came out at 52.9 µM.
Turning to `Cc1nc(N)sc1-c1ccnc(Nc2ccc(N3CCOCC3)cc2)n1`, the GI50 was 611 nM and the TGI was over 100 µM.
Consider `C#Cc1cccc(Nc2ncnc3cc(OC)c(OCCCCCCC(=O)NO)cc23)c1`, for which the GI50 is 7.53 nM and the TGI stood at 0.0814 µM.
As to `COc1ccc(N(C)c2ncnc3occ(C)c23)cc1`, the GI50 is under 10 nM and the TGI is 15.4 µM.
Take `CC/C(=C(/c1ccc(OCCN(C)C)cc1)c1ccc(OC(=O)CCCCC(=O)c2c(C)[nH]c(/C=C3\N=C(c4ccc[nH]4)C=C3OC)c2C)cc1)c1ccccc1`: the GI50 is 2470 nM and the TGI came to 14.7 µM.
For the molecule `Cc1c2cccnc2c(C)c2c1c1cc(CO)ccc1n2C`, the GI50 is 183 nM and the TGI is 0.561 µM.
Take `O=c1n(CC2CO2)c(=O)n(CC2CO2)c(=O)n1CC1CO1` (stereo not drawn): the GI50 was 2260 nM and the TGI was found to be 11.3 µM.
Take `COc1cc(Nc2cn[nH]c2-c2ccc(Cl)cc2)cc(OC)c1OC`: the GI50 is 1600 nM and the TGI is 6.4 µM.
For the molecule `COC(=O)/C=C/c1cc(O)c2oc(-c3ccc(O)c(O)c3)c(C(=O)OC)c2c1`, the GI50 was 1820 nM and the TGI turned out to be 12.9 µM.

For the origin of these results see PubChem BioAssay (NCI).
